Data as given in ChEMBL document CHEMBL1275418, “IMP-15-producing Pseudomonas aeruginosa strain isolated in a U.S. medical center: a recent arrival from Mexico” (2008).

Experiments:
Format in all cases: functional
[1] = tested on: Pseudomonas aeruginosa; assay: Antibacterial activity against Pseudomonas aeruginosa 1750J expressing beta-lactamase IMP-15 by Etest in presence of EDTA
[2] = tested on: Pseudomonas aeruginosa; assay: Antibacterial activity against Pseudomonas aeruginosa isolates by Etest
[3] = tested on: Pseudomonas aeruginosa; assay: Antibacterial activity against Pseudomonas aeruginosa 1750J expressing beta-lactamase IMP-15 by Etest
[4] = tested on: Pseudomonas aeruginosa; assay: Antibacterial activity against Pseudomonas aeruginosa 1750J expressing beta-lactamase IMP-15 by Etest in presence of beta-lactamase inhibitor Tazobactam

Compound | MIC [1] [µg/mL] | MIC [2] [µg/mL] | MIC [3] [µg/mL] | MIC [4] [µg/mL]
O=C(O)C1=CC[C@@H]2CC(=O)N12 [CARBAPENEM] | 8 | > 256 | – | –
CC(C)(O/N=C(\C(=O)N[C@@H]1C(=O)N2C(C(=O)[O-])=C(C[n+]3ccccc3)CS[C@H]12)c1csc(N)n1)C(=O)O [CEFTAZIDIME] | – | ≥ 16 | > 256 | –
O=C(O)c1cn(C2CC2)c2cc(N3CCNCC3)c(F)cc2c1=O [CIPROFLOXACIN] | – | – | > 32 | –
C[C@@H](O)[C@H]1C(=O)N2C(C(=O)O)=C(S[C@@H]3CN[C@H](C(=O)Nc4cccc(C(=O)O)c4)C3)[C@H](C)[C@H]12 [ERTAPENEM] | – | – | > 32 | –
C[C@@H](O)[C@H]1C(=O)N2C(C(=O)O)=C(SCCNC=N)C[C@H]12 [IMIPENEM ANHYDROUS] | – | ≥ 8 | > 32 | –
C[C@@H](O)[C@H]1C(=O)N2C(C(=O)O)=C(S[C@@H]3CN[C@H](C(=O)N(C)C)C3)[C@H](C)[C@H]12 [MEROPENEM] | – | ≥ 8 | > 32 | –
CCN1CCN(C(=O)N[C@@H](C(=O)N[C@@H]2C(=O)N3[C@@H]2SC(C)(C)[C@@H]3C(=O)O)c2ccccc2)C(=O)C1=O [PIPERACILLIN] | – | – | – | > 256
NC[C@H]1O[C@H](O[C@H]2[C@H](O)[C@@H](O[C@H]3O[C@H](CO)[C@@H](O)[C@H](N)[C@H]3O)[C@H](N)C[C@@H]2N)[C@H](N)C[C@@H]1O [TOBRAMYCIN] | – | – | > 256 | –
GENTAMICIN | – | – | > 256 | –
